Read-outs that look alike come from different tables or passages of the source.
How the values were obtained:
A1 adenosine receptors = target: T1, A1 adenosine receptors (Rattus norvegicus, UniProt P25099); test: inhibition of binding of [3H]N6-phenylisopropyladenosine ([3H]PIA) to A1 adenosine receptors in rat cerebral cortex membranes
T1 construct: A1 adenosine receptors in rat cerebral cortex membranes; from tissue; host or cells: rat cerebral cortex membranes
T1 sequence (P25099 1-326): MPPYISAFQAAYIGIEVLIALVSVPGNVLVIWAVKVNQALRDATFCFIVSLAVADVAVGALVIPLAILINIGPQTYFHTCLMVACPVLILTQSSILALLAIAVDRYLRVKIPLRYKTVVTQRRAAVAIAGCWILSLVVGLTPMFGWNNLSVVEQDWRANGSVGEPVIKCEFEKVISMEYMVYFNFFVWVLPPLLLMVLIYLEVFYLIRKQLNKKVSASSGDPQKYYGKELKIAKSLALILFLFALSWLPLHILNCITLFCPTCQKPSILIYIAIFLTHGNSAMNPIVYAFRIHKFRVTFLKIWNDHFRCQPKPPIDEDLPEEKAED
Experimental: Ukena et al., FEBS Letters 209;122, 1986.
For the biochemical assays, stock solutions of xanthines in the millimolar concentration range in dimethylsulfoxide were prepared and stored frozen. The solutions were warmed to 50° C. prior to dilution in aqueous medium. […] Acad. Sci. USA, 83:4089, 1986. Inhibition of binding by a range of concentrations of a xanthine or adenosine derivative was assessed in triplicate in at least three separate experiments.

central A1 receptors [1] = target: T2, central A1 receptors (Rattus norvegicus, UniProt P25099); type: binding
T2 construct: A1 -adenosine receptors in rat brain membranes; from tissue; host or cells: rat brain membranes
T2 sequence (P25099 1-326): T1 sequence (P25099 1-326)

central A1 receptors [2] = target: T3, central A1 receptors (Bos taurus, UniProt P28190); test: inhibition of radioligand binding at central A1 receptors, calf brain membranes
T3 construct: A1 -adenosine receptors in membranes form calf brain; from tissue; host or cells: calf brain membranes
T3 sequence (P28190 1-326): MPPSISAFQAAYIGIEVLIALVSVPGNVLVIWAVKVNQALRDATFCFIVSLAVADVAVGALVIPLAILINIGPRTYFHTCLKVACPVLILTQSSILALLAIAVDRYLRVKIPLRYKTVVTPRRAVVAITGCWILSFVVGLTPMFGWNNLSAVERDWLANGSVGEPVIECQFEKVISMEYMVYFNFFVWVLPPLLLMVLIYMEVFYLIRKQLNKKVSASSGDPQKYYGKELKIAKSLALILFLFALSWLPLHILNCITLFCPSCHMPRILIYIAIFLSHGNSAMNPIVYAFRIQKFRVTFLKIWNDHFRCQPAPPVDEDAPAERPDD
From the text: ^b against [^125 I]APNEA (i.e. N^6
^b against [^125 I]APNEA;
The compounds, at concentrations relative to the Ki -values obtained, were screened for the ability to inhibit competitive binding of the radioligands [^3 H]PIA to rat brain membranes and [^3 H]XAC to bovine brain membranes, a shown in Table 1.

[3] = Table I, rat, against [3H]PIA, read-out: Ki at central A1 receptors, rat
[4] = Table I, calf, against [125I]APNEA, read-out: Ki at central A1 receptors, calf
[5] = read-out: Ki at central A1 receptors, rat
[6] = read-out: Ki at central A1 receptors, calf

Row | Compound | Ki (A1 adenosine receptors; [3]) | Ki (A1 adenosine receptors; [5]) | further results
1 | CCCn1c(=O)c2[nH]c(-c3ccc(OCC(=O)ON4C(=O)CCC4=O)cc3)nc2n(CCC)c1=O [Compound 1] | 9 ± 0.7 nM | – | inhibition at 0.5 µM (central A1 receptors [1]; read-out: % inhib (conc)): 0%; irreversible inhibition of central A1-adenosine receptors (central A1 receptors [1]; result in words): only the longest of the series, SUS-XAC, 21, inhibits binding irreversibly
2 | CCCn1c(=O)c2[nH]c(-c3ccc(OCC(=O)NCC=O)cc3)nc2n(CCC)c1=O [Compound 2b] | 266 ± 40 nM | – | Ki (central A1 receptors [2]; [4]): 1.5 ± 0.1 nM; % inhib (conc) (central A1 receptors [1]; 500 nM, one hour incubation and washout, rat brain membranes, against [125I]APNEA): 0%
3 | CCCn1c(=O)c2[nH]c(-c3ccc(OCC(=O)NCCN)cc3)nc2n(CCC)c1=O [Compound 3, reference compound] | 1.1 ± 0.05 nM | – | Ki (central A1 receptors [2]; [4]): 0.2 nM
4 | CCCn1c(=O)c2[nH]c(-c3ccc(OCC(=O)NCCNC(=S)Nc4cccc(N=C=S)c4)cc3)nc2n(CCC)c1=O [Compound 5b] | – | – | relative potency in the binding assay, 5b versus 4b (A1 adenosine receptors; meta versus para isomer): more than twice as potent in the binding assay than 4b; Ki (central A1 receptors [2]): 0.5 nM; inhibition at 0.005 µM (central A1 receptors [1]; read-out: % inhib (conc)): 49%; potency of irreversible inhibition, meta versus para phenylisothiocyanate (central A1 receptors [1]; xanthine series, result in words): meta-position favored (5b) over the para-position (4b)
5 | CCCn1c(=O)c2[nH]c(-c3ccc(OCC(=O)NCCNC(=S)Nc4ccc(C)cc4)cc3)nc2n(CCC)c1=O [Compound 6] | 16 ± 2.9 nM | – | –
6 | CCCn1c(=O)c2nc(-c3ccc(OCC(=O)NCCN=C(S)Nc4ccc(OC)cc4)cc3)[nH]c2n(CCC)c1=O [Compound 7] | 20 nM | – | –
7 | CCCn1c(=O)c2nc(-c3ccc(OCC(=O)NCCN=C(S)Nc4ccc(F)cc4)cc3)[nH]c2n(CCC)c1=O [Compound 8] | – | 12.8 nM | –
8 | CCCn1c(=O)c2[nH]c(-c3ccc(OCC(=O)NCCNC(=S)Nc4c(F)c(F)c(F)c(F)c4F)cc3)nc2n(CCC)c1=O [Compound 9] | 9.07 ± 0.9 nM | – | –
9 | CCCn1c(=O)c2[nH]c(-c3ccc(OCC(=O)NCCNC(=S)Nc4ccc(Br)cc4)cc3)nc2n(CCC)c1=O [Compound 10] | 7.26 ± 0.9 nM | – | –
10 | CCCn1c(=O)c2nc(-c3ccc(OCC(=O)NCCN=C(S)Nc4ccc([N+](=O)[O-])cc4)cc3)[nH]c2n(CCC)c1=O [Compound 11] | – | 5 nM | –
11 | CCCn1c(=O)c2nc(-c3ccc(OCC(=O)NCCN=C(S)Nc4ccc(S(=O)(=O)O)cc4)cc3)[nH]c2n(CCC)c1=O [Compound 12] | – | 430 nM | –
12 | CCCn1c(=O)c2[nH]c(-c3ccc(OCC(=O)NCCNS(=O)(=O)c4cccc(S(=O)(=O)Cl)c4)cc3)nc2n(CCC)c1=O [Compound 13] | 2.5 ± 0.47 nM | – | inhibition at 0.1 µM (central A1 receptors [1]; read-out: % inhib (conc)): 20%
13 | CCCn1c(=O)c2[nH]c(-c3ccc(OCC(=O)NCCNS(=O)(=O)c4ccc(C)cc4)cc3)nc2n(CCC)c1=O [Compound 14] | 72 ± 7.2 nM | – | –
14 | CCCn1c(=O)c2[nH]c(-c3ccc(OCC(=O)NCCNC(=O)Cc4ccc(NC(=O)OC(C)(C)C)cc4)cc3)nc2n(CCC)c1=O [Compound 15c] | 53 ± 12 nM | – | –
15 | CCCn1c(=O)c2[nH]c(-c3ccc(OCC(=O)NCCNC(=O)Cc4ccc(N)cc4)cc3)nc2n(CCC)c1=O [Compound 15d] | 40 nM | – | –
16 | CCCn1c(=O)c2[nH]c(-c3ccc(OCC(=O)NCCNC(=O)Cc4ccc(NC(=S)Nc5ccc(N=C=S)cc5)cc4)cc3)nc2n(CCC)c1=O [Compound 15e] | – | – | Ki (A1 adenosine receptors): 30 nM; inhibition at 0.1 µM (central A1 receptors [1]; read-out: % inhib (conc)): 10%
17 | CCCn1c(=O)c2[nH]c(-c3ccc(OCC(=O)NCCNC(=O)CNC(=S)Nc4ccc(N=C=S)cc4)cc3)nc2n(CCC)c1=O [Compound 16c] | 6.85 ± 1.14 nM | – | inhibition at 0.5 µM (central A1 receptors [1]; read-out: % inhib (conc)): 50%; irreversible inhibition of central A1-adenosine receptors (central A1 receptors [1]; result in words): behave pharmacologically as irreversible inhibitors of central A1 -adenosine receptors
18 | CCCn1c(=O)c2[nH]c(-c3ccc(OCC(=O)NCCNC(=O)CCCCC(C)=O)cc3)nc2n(CCC)c1=O [Compound 17] | 44 ± 9 nM | – | Ki (central A1 receptors [2]; [6]): 3.2 nM; inhibition at 0.5 µM (central A1 receptors [1]; read-out: % inhib (conc)): 0%
19 | CCCn1c(=O)c2[nH]c(-c3ccc(OCC(=O)NCCNC(=O)CBr)cc3)nc2n(CCC)c1=O [Compound 18, 8-[2-[4-bromoacetylaminoethyl[amino[carbonyl[methyloxyphenyl]]]]]-1,3-dipropylxanthine] | 17.6 ± 1.5 nM | – | –

Row | Compound | Ki (A1 adenosine receptors; [3]) | Ki (A1 adenosine receptors; [5]) | further results
20 | CCCn1c(=O)c2[nH]c(-c3ccc(OCC(=O)NCCNC(=O)c4ccc(CBr)cc4)cc3)nc2n(CCC)c1=O [Compound 19] | 11.5 ± 1.5 nM | – | Ki (central A1 receptors [2]; [6]): 6.9 nM
21 | CCCn1c(=O)c2[nH]c(-c3ccc(OCC(=O)NCCNC(=O)CCC(=O)ON4C(=O)CCC4=O)cc3)nc2n(CCC)c1=O [Compound 20b] | 20 ± 4.5 nM | – | inhibition at 0.5 µM (central A1 receptors [1]; read-out: % inhib (conc)): 0%; irreversible inhibition of central A1-adenosine receptors (central A1 receptors [1]; result in words): only the longest of the series, SUS-XAC, 21, inhibits binding irreversibly
22 | CCCn1c(=O)c2[nH]c(-c3ccc(OCC(=O)NCCNC(=O)CCCCCCC(=O)ON4C(=O)CCC4=O)cc3)nc2n(CCC)c1=O [Compound 21] | 3.69 ± 0.71 nM | – | Ki (central A1 receptors [2]; [4]): 15.8 nM; inhibition at 0.5 µM (central A1 receptors [1]; read-out: % inhib (conc)): 40%; irreversible inhibition of central A1-adenosine receptors (central A1 receptors [1]; result in words): inhibits binding irreversibly
23 | CCCn1c(=O)c2[nH]c(-c3ccc(OCC(=O)NCCNC(=O)CCSSc4ccccn4)cc3)nc2n(CCC)c1=O [Compound 22] | 23.8 ± 3.51 nM | – | –
24 | CCCn1c(=O)c2nc(-c3ccc(OCC(=O)NCCNC(=O)CCCN4C(=O)C=CC4=O)cc3)[nH]c2n(CCC)c1=O [Compound 23] | – | 63 nM | –
25 | O=C(Cc1ccc(Nc2ncnc3c2ncn3[C@@H]2O[C@H](CO)[C@@H](O)[C@H]2O)cc1)ON1C(=O)CCC1=O [Compound 24] | – | – | Ki (A1 adenosine receptors; Table II, rat, against [3H]PIA, read-out: Ki at central A1 receptors, rat): 8.37 ± 0.73 nM
26 | O=C(Cc1ccc(Nc2ncnc3c2ncn3[C@@H]2O[C@H](CO)[C@@H](O)[C@H]2O)cc1)Nc1ccc(CC(=O)ON2C(=O)CCC2=O)cc1 [Compound 25] | – | 9.6 ± 1.44 nM | –
27 | NCCNC(=O)Cc1ccc(NC(=O)Cc2ccc(Nc3ncnc4c3ncn4[C@@H]3O[C@H](CO)[C@@H](O)[C@H]3O)cc2)cc1 [Compound 26a, reference compound] | – | – | Ki (central A1 receptors [2]): 0.2 nM
28 | O=C(Cc1ccc(NC(=O)Cc2ccc(Nc3ncnc4c3ncn4[C@@H]3O[C@H](CO)[C@@H](O)[C@H]3O)cc2)cc1)NCCN=C=S [Compound 26b] | – | – | Ki (A1 adenosine receptors): 4 nM; Ki (central A1 receptors [2]): 2.5 nM
29 | O=C(Cc1ccc(NC(=O)Cc2ccc(Nc3ncnc4c3ncn4[C@@H]3O[C@H](CO)[C@@H](O)[C@H]3O)cc2)cc1)NCCNC(=S)Nc1ccc(N=C=S)cc1 [Compound 27] | – | – | Ki (A1 adenosine receptors): 0.47 ± 0.13 nM; Ki (central A1 receptors [2]): 0.1 nM; inhibition at 0.05 µM (central A1 receptors [1]; read-out: % inhib (conc)): > 80%; irreversible inhibition of central A1-adenosine receptors (central A1 receptors [1]; result in words): behave pharmacologically as irreversible inhibitors of central A1 -adenosine receptors
30 | Cc1ccc(NC(=S)NCCNC(=O)Cc2ccc(NC(=O)Cc3ccc(Nc4ncnc5c4ncn5[C@@H]4O[C@H](CO)[C@@H](O)[C@H]4O)cc3)cc2)cc1 [Compound 29] | – | 3.72 ± 0.44 nM | –
31 | COc1ccc(NC(=S)NCCNC(=O)Cc2ccc(NC(=O)Cc3ccc(Nc4ncnc5c4ncn5[C@@H]4O[C@H](CO)[C@@H](O)[C@H]4O)cc3)cc2)cc1 [Compound 30] | – | 5 nM | –
32 | O=C(Cc1ccc(NC(=O)Cc2ccc(Nc3ncnc4c3ncn4[C@@H]3O[C@H](CO)[C@@H](O)[C@H]3O)cc2)cc1)NCCNC(=S)Nc1ccc(F)cc1 [Compound 31a] | – | 5 nM | –
33 | O=C(Cc1ccc(NC(=O)Cc2ccc(Nc3ncnc4c3ncn4[C@@H]3O[C@H](CO)[C@@H](O)[C@H]3O)cc2)cc1)NCCNC(=S)Nc1ccccc1F [Compound 31b] | – | 10.7 nM | –
34 | O=C(Cc1ccc(NC(=O)Cc2ccc(Nc3ncnc4c3ncn4[C@@H]3O[C@H](CO)[C@@H](O)[C@H]3O)cc2)cc1)NCCNC(=S)Nc1c(F)c(F)c(F)c(F)c1F [Compound 32] | – | 1.64 ± 0.47 nM | –
35 | O=C(Cc1ccc(NC(=O)Cc2ccc(Nc3ncnc4c3ncn4[C@@H]3O[C@H](CO)[C@@H](O)[C@H]3O)cc2)cc1)NCCNC(=S)Nc1ccc(Br)cc1 [Compound 33] | – | 1.19 ± 0.14 nM | –
36 | O=C(Cc1ccc(NC(=O)Cc2ccc(Nc3ncnc4c3ncn4[C@@H]3O[C@H](CO)[C@@H](O)[C@H]3O)cc2)cc1)NCCNC(=S)Nc1ccc([N+](=O)[O-])cc1 [Compound 34] | – | 1 nM | –
37 | O=C(Cc1ccc(NC(=O)Cc2ccc(Nc3ncnc4c3ncn4[C@@H]3O[C@H](CO)[C@@H](O)[C@H]3O)cc2)cc1)NCCNC(=S)Nc1ccc(S(=O)(=O)O)cc1 [Compound 35] | – | 100 nM | –
38 | O=C(CBr)NCCNC(=O)Cc1ccc(NC(=O)Cc2ccc(Nc3ncnc4c3ncn4[C@@H]3O[C@H](CO)[C@@H](O)[C@H]3O)cc2)cc1 [Compound 36] | – | 5 nM | –

From patent US5298508A, “Irreversible inhibitors of adenosine receptors” (priority 1992, dated 1994)
